For experiment [1], the system named is T1, General amino-acid permease GAP1 (Saccharomyces cerevisiae), P19145 [L387C].
T1 sequence (whole entry): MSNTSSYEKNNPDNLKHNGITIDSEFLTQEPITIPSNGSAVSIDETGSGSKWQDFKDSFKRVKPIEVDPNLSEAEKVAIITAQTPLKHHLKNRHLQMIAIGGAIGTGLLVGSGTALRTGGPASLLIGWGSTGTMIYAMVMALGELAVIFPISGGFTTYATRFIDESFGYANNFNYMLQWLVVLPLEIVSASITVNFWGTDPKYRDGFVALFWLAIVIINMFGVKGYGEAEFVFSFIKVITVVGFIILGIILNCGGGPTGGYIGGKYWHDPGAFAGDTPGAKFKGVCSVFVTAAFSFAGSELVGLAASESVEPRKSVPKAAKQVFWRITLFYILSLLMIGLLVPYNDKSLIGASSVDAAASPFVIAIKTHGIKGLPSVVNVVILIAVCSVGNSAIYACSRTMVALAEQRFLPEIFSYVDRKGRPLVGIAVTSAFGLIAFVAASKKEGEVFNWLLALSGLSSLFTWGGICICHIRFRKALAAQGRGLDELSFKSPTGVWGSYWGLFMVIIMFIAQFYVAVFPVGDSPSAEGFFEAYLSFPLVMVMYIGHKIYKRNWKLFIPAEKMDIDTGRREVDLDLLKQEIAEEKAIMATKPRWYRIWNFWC
The experiment is described as follows: Induction of yeast Gap1 L387C mutant-mediated trehalose activation at 2 mM in presence of 10 mM MTSEA treated before compound addition.

In experiment [2] the test system is General amino-acid permease GAP1 (Saccharomyces cerevisiae), P19145 [I394C]. The experiment is described as follows: Inhibition of yeast Gap1 I394C mutant-mediated trehalose activation at 10 mM.
The test system of experiment [3] is General amino-acid permease GAP1 (Saccharomyces cerevisiae), P19145 [S388C]. The experiment is described as follows: Induction of yeast Gap1 S388C mutant-mediated amino acid uptake at 2 mM in presence of 10 mM MTSEA treated before compound addition.
Experiment [4] concerns T2, General amino-acid permease GAP1 (Saccharomyces cerevisiae), P19145 [I384C].
T2 sequence (whole entry): T1 sequence (whole entry) with I384C, C387L
The experiment is described as follows: Induction of yeast Gap1 I384C mutant-mediated amino acid uptake at 2 mM in presence of 10 mM MTSEA treated before compound addition.

In experiment [5] the test system is General amino-acid permease GAP1 (Saccharomyces cerevisiae), P19145 [V389C]. The experiment is described as follows: Induction of yeast Gap1 V389C mutant-mediated trehalose activation at 2 mM in presence of 10 mM MTSEA treated before compound addition.
For experiment [6], the system named is T1, General amino-acid permease GAP1 (Saccharomyces cerevisiae), P19145 [L387C]. Nature of the experiment: Induction of yeast Gap1 L387C mutant-mediated trehalose activation at 10 mM.
The subject of experiment [7] is T3, General amino-acid permease GAP1 (Saccharomyces cerevisiae), P19145 [S398C].
T3 sequence (whole entry): T1 sequence (whole entry) with C387L, S398C
Nature of the experiment: Activation of yeast Gap1 S398C mutant-mediated amino acid uptake at 10 mM.

Experiment [8] deals with T4, General amino-acid permease GAP1 (Saccharomyces cerevisiae), P19145 [A405C].
T4 sequence (whole entry): T1 sequence (whole entry) with C387L, A405C
The experiment is described as follows: Activation of yeast Gap1 A405C mutant-mediated amino acid uptake at 10 mM.

Residue numbers refer to the chain shown, from its start. The source made the active and inactive calls. The calls are words filed in the database; no cut-off is given here.

Chain of General amino-acid permease GAP1 (Saccharomyces cerevisiae), P19145 [V389C] (P19145 whole entry V389C): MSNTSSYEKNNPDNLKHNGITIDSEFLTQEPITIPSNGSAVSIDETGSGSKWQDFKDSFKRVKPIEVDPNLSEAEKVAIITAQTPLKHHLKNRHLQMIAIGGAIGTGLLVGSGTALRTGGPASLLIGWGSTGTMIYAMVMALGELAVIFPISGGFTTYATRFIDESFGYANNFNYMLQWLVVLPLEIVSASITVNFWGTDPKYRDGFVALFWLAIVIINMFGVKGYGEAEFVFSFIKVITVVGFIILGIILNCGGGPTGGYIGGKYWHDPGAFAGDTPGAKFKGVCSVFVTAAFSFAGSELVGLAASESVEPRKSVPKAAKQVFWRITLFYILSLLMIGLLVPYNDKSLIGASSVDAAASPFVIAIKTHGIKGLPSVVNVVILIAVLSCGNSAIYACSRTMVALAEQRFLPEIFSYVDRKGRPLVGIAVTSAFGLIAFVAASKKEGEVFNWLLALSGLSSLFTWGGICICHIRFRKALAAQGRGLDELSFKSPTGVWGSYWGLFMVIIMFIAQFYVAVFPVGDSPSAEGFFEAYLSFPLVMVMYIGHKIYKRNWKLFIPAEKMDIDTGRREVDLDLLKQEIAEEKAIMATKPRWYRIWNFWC
Chain of General amino-acid permease GAP1 (Saccharomyces cerevisiae), P19145 [I394C] (P19145 whole entry I394C): as the sequence (P19145 whole entry V389C) above, with C389V, I394C counted along it
Chain of General amino-acid permease GAP1 (Saccharomyces cerevisiae), P19145 [S388C] (P19145 whole entry S388C): as the sequence (P19145 whole entry V389C) above, with S388C, C389V counted along it

In the case of `NC(=O)NCCC[C@H](N)C(=O)O`, the inhibition entry in experiment [1] and in experiment [2] was “Active” in each case. The inhibition entry in experiment [3] and in experiment [5] was “inactive” each time. Moreover, the outcome in experiment [4] was Active. The result in experiment [6], in experiment [7] and in experiment [8] was inactive.
